# Laboratory results as given in patent US20070161550A1, “Antiviral compositions which inhibit paramyxovirus infection” (priority 2003, published 2007).
# What was measured:
# chemotaxis = settings: cited from earlier work
# rA2 cpts248/404ΔSH = experiment: Inhibition of infectivity of mutant RSV strain lacking SH protein, HEp-2 plaque assay; format: cell-based, respiratory syncytial virus (RSV); settings: strain 248/404ΔSH, 10 μg/ml, treated 1 h before infection, 5 days
# Method: (§1) Virus stocks. Wild type RSV strains A2 and B1 (Wright et al., 1973) and mutant RSV strains cpts248/404 (Ackerlind et al., 1988), rA2 cpts248/404ASH (Crowe et al., 1994) and cp32/D1, deficient in SH and G genes (nucleotides 4064-5462) (Karron et al., 1997), were propagated as previously described (Hancock et al., 1996) in HEp-2 cells (ATCC CCL 23) cultured in complete medium (DMEM supplemented with 2 mM L-glutamine, 2% penicillin/streptomycin and 10% (V/V) FBS, 37° C., 5% CO2). The cp32/D1 mutant was isolated from the B1 strain using methodologies previously described for cp52 (Crowe et al., 1996; Karron et al., 1997). A recombinant RSV, (rA2 cpΔG118) genetically truncated at amino acid 117 of G protein was also used in the investigation. All virus stocks were prepared from cell lysates clarified by low speed (200 g) centrifugation 15 minutes at 4° C.
# (§2) Inhibition of virus infectivity in vitro. HEp-2 cell monolayers were grown in 96-well tissue culture plates (Falcon, Becton Dickson and Co.; Franklin Lakes, N.J.) with complete medium. The monolayers were pre-treated for 1 hour at 4° C. or 37° C. in triplicate wells with the indicated amounts of recombinant chemokine or anti-chemokine receptor antibody. After removal of chemokine or antibody, the monolayers were infected 1 hour at the same temperature with the denoted wild type or mutant RSV strain and then overlaid with 2% Sephadex (Amersham Biosciences; Piscataway, N.J.). Anti-viral activity was also assessed 1 hour after the cells were infected, or following simultaneous exposure of the monolayers to virus in a 1:1 mixture with the indicated doses of chemokines or CCL5 peptides. […]
# (§3) Plaque assay. […] Bound antibody was detected using 0.05% 4-chloro-1-naphtol containing 0.1% H2O2 in PBS. After enumeration of plaques, the mean percent infectivity (±1 standard deviation of triplicate wells) was calculated relative to monolayers exposed to virus in culture medium alone without chemokine or anti-chemokine receptor antibody. […]
# cp32/D1 = experiment: Inhibition of infectivity of mutant RSV strain lacking SH and G proteins, HEp-2 plaque assay; format: cell-based, respiratory syncytial virus (RSV); settings: Table 15 Experiment 2, 10 μg/ml, treated 1 h before infection, 5 days
# Method: as §1, with “All virus stocks were prepared from cell lysates clarified by low speed (200 g) centrifugation 15 minutes at 4° C.” left out
# (§4) Inhibition of virus infectivity in vitro. […] Anti-viral activity was also assessed 1 hour after the cells were infected, or following simultaneous exposure of the monolayers to virus in a 1:1 mixture with the indicated doses of chemokines or CCL5 peptides. […]
# as §3
# RSV B1 = experiment: Inhibition of infectivity of wild type RSV B1, HEp-2 plaque assay; format: cell-based, respiratory syncytial virus (RSV); settings: Table 15 Experiment 2; strain B1; 10 μg/ml, treated 1 h before infection; 5 days
# Method: as §1, with “All virus stocks were prepared from cell lysates clarified by low speed (200 g) centrifugation 15 minutes at 4° C.” left out
# as §4
# (§5) Plaque assay. […] Bound antibody was detected using 0.05% 4-chloro-1-naphtol containing 0.1% H2O2 in PBS. After enumeration of plaques, the mean percent infectivity (±1 standard deviation of triplicate wells) was calculated relative to monolayers exposed to virus in culture medium alone without chemokine or anti-chemokine receptor antibody.
# rA2cpΔ118 = experiment: Inhibition of infectivity of RSV with truncated G protein, HEp-2 plaque assay; format: cell-based, respiratory syncytial virus (RSV); settings: Table 15 Experiment 1; strain rA2cpΔ118; 10 μg/ml, treated 1 h before infection; 5 days
# Method: as §1, with “All virus stocks were prepared from cell lysates clarified by low speed (200 g) centrifugation 15 minutes at 4° C.” left out
# as §4, §3
# HEp-2 cells = experiment: Binding of biotinylated CCL5 peptides to HEp-2 cell monolayers (ELISA); design: species or system human; settings: FIG. 3, viable HEp-2 cells at 4° C.
# Method: Interaction of CCL5 peptides with HEp-2 cells. An ELISA was used to assess the relative binding of synthetic peptides to HEp-2 cell monolayers. In brief, 96-well plates (Falcon) were seeded with 3×10^4 HEp-2 cells per well in 0.2 ml of complete medium. After overnight incubation (37° C., 5% CO2), the monolayers were cooled on ice for approximately 15 minutes. The biotinylated peptides were added to duplicate wells in ascending doses from 0.49 μg to 500 μg per ml DMEM (supplemented with 1% FBS, 2% penicillin/streptomycin, and 2 mM L-glutamine) and incubated at 4° C. for 1 hour. The monolayers were then fixed (20 minutes at RT) with 80% methanol (J T Baker; Phillipsburg, N.J.). […] Thereafter, the monolayers were incubated (1 hour at RT) with streptavidin-HRP (Zymed; San Francisco, Calif.). The wells were developed with TMB One-Step Substrate Solution (DAKO; Carpinteria, Calif.). Optical density was determined (450 nm, reference at 550 nm) with a Molecular Devices Versamax microplate reader (Sunnyvale, Calif.).
# cpts248/404 = experiment: Inhibition of infectivity of mutant RSV strain 248/404, HEp-2 plaque assay; format: cell-based, respiratory syncytial virus (RSV); settings: treated 1 h before infection, 5 days
# Method: as §1, §2, §5
# RSV A2 = experiment: Inhibition of RSV infectivity in vitro, plaque assay on HEp-2 cell monolayers; format: cell-based, respiratory syncytial virus (RSV)
# Method: (§6) Inhibition of virus infectivity in vitro. HEp-2 cell monolayers were grown in 96-well tissue culture plates (Falcon, Becton Dickson and Co.; Franklin Lakes, N.J.) with complete medium. The monolayers were pre-treated for 1 hour at 4° C. or 37° C. in triplicate wells with the indicated amounts of recombinant chemokine or anti-chemokine receptor antibody. After removal of chemokine or antibody, the monolayers were infected 1 hour at the same temperature with the denoted wild type or mutant RSV strain and then overlaid with 2% Sephadex (Amersham Biosciences; Piscataway, N.J.). Anti-viral activity was also assessed 1 hour after the cells were infected, or following simultaneous exposure of the monolayers to virus in a 1:1 mixture with the indicated doses of chemokines or CCL5 peptides. The inhibitory properties of the anti-chemokine receptor antibodies were tested alone or in combination at doses ranging from 5 to 100 μg/ml culture medium.
# Plaque assay. Virus plaques were visualized as previously described (Hancock et al. 1996) using anti-F protein (L4) mAb (Paradiso et al., 1991; Walsh and Hruska, 1983). Thereafter, cells were rinsed with blotto blocking agent (PBS, 5% powdered milk) and incubated with horseradish peroxidase-conjugated goat anti-mouse IgG (Kirkegaard and Perry Laboratories, Inc.; Gaithersburg, Md.). Bound antibody was detected using 0.05% 4-chloro-1-naphtol containing 0.1% H2O2 in PBS. After enumeration of plaques, the mean percent infectivity (±1 standard deviation of triplicate wells) was calculated relative to monolayers exposed to virus in culture medium alone without chemokine or anti-chemokine receptor antibody.
# cp-RSV = experiment: Inhibition of infectivity of cp-RSV, HEp-2 plaque assay; format: cell-based, respiratory syncytial virus (RSV); settings: Table 15 Experiment 1; strain cp-RSV; 10 μg/ml, treated 1 h before infection
# Method: as §6, §5
# RSV = experiment: Inhibition of RSV infection of A549 monolayers; format: cell-based, respiratory syncytial virus (RSV); settings: prior treatment of A549 monolayers; data not shown
# [1] = Table 15 Experiment 1, 10 μg/ml
# [2] = Table 15 Experiment 1, strain A2, 10 μg/ml, treated 1 h before infection, 3 days
molecule,measurement,setting,value
"Ac-YFYEKIHARPLPRAIYAFC-NH2 [SEQ ID NO:19, retroinverted peptide of CCL5 residues 11-29 in reverse order]",effect on chemotaxis (in words),chemotaxis,antagonized chemotaxis
"CCL5: recombinant human chemokine CCL5 (RANTES), full length polypeptide of SEQ ID NO:1",Percent Infectivity,rA2 cpts248/404ΔSH; Table 15 Experiment 1,34%
same,Percent Infectivity,rA2 cpts248/404ΔSH; Table 15 Experiment 2,13%
same,Percent Infectivity,cp32/D1,41%
same,Percent Infectivity,RSV B1,24%
same,Percent Infectivity,rA2cpΔ118,26%
same,binding to the epithelial cell monolayer (in words),HEp-2 cells,readily bound to the epithelial cell monolayer
same,Percent Infectivity,cpts248/404; [1],28%
same,Percent Infectivity,"cpts248/404; Table 15 Experiment 2, 10 μg/ml",25%
same,Percent Infectivity,"RSV A2; Table 10, 1 μg/ml, exposed 1 hour before infection, plaques after 3 days",73.6 ± 20.6%
same,Percent Infectivity,"RSV A2; Table 10, 5 μg/ml, exposed 1 hour before infection, plaques after 3 days",25.0 ± 7.2%
same,Percent Infectivity,"RSV A2; Table 10, 10 μg/ml, exposed 1 hour before infection, plaques after 3 days, relative to control wells (100%)",29.2 ± 16.7%
same,Percent Infectivity,"RSV A2; Table 10, 10 μg/ml, exposed 1 hour before infection, plaques after 3 days, relative to control wells (100%), listed as rCCL5",approximately 30%
same,Percent Infectivity,"RSV A2; Table 11, 1 μg/ml, exposed 1 hour before infection, plaques after 3 days",101.0 ± 4.0%
same,Percent Infectivity,"RSV A2; Table 11, 5 μg/ml, exposed 1 hour before infection, plaques after 3 days",42.0 ± 3.0%
same,Percent Infectivity,"RSV A2; Table 11, 10 μg/ml, exposed 1 hour before infection, plaques after 3 days",16.0 ± 8.0%
same,Percent Infectivity,"RSV A2; Table 11, 10 μg/ml, exposed 1 hour before infection, plaques after 3 days, listed as rCCL5",~20%
same,Percent Infectivity,"RSV A2; Table 12, 10 μg/ml, 1 hour after removal of RSV A2 (POST)",101 ± 12%
same,Percent Infectivity,"RSV A2; Table 12, 10 μg/ml, 1 hour prior to infection (PRE)",22 ± 11%
same,Percent Infectivity,"RSV A2; Table 13, 10 μg/ml, 1 hour prior to infection (PRE)",17
same,Percent Infectivity,"RSV A2; Table 13, 10 μg/ml, CCL5 denatured by heat (HEAT)",75
same,Percent Infectivity,"RSV A2; Table 13, 10 μg/ml, simultaneously admixed with RSV (SIM)",33
same,Percent Infectivity,"RSV A2; Table 14, 5 μg, pre-treated 1 hour at 4° C.",37%
same,Percent Infectivity,"RSV A2; Table 14, 5 μg, pre-treated 1 hour at 37° C.",41%
same,Percent Infectivity,"RSV A2; Table 14, 10 μg, pre-treated 1 hour at 4° C.",23%
same,Percent Infectivity,"RSV A2; Table 14, 10 μg, pre-treated 1 hour at 37° C.",4%
same,Percent Infectivity,"RSV A2; Table 14, 20 μg, pre-treated 1 hour at 4° C.",14%
same,Percent Infectivity,"RSV A2; Table 14, 20 μg, pre-treated 1 hour at 4° C., listed as rCCL5",approximately 14%
same,Percent Infectivity,"RSV A2; Table 14, 20 μg, pre-treated 1 hour at 37° C.",16%
same,Percent Infectivity,RSV A2; [2],33%
same,Percent Infectivity,"RSV A2; Table 15 Experiment 2, strain A2, 10 μg/ml, treated 1 h before infection, 3 days",28%
same,IC50,"RSV A2; prior exposure (1 hour) of HEp-2 cell monolayers, read-out: median inhibitory concentration (IC50)",726 nM
same,Percent Infectivity,cp-RSV,64%
same,inhibition of infection with RSV (in words),RSV,inhibited infection with RSV
"met-CCL5: CCL5 of SEQ ID NO:1 with a methionine NH2-terminal to Ser1; inactive as chemokine agonist (protein, listed as Homo sapiens, N-terminal methionine) MSPYSSDTTPCCFAYIARPLPRAHIKEYFYTSGKCSNPAVVFVTRKNRQVCANPEKKWVREYINSLEMS",Percent Infectivity,rA2 cpts248/404ΔSH; Table 15 Experiment 1,32%
same,Percent Infectivity,rA2cpΔ118,41%
same,Percent Infectivity,cpts248/404; [1],26%
same,"infectivity, percent of control cells","RSV A2; FIG. 1, 1.25 μg met-CCL5/ml, prior treatment",approximately 80%
same,"infectivity, percent of control cells","RSV A2; FIG. 1, 20 μg met-CCL5/ml, pre-treated one hour before infection",approximately 25%
same,inhibition of infectivity (in words),"RSV A2; FIG. 1, doses of 0.313 or 0.156 μg met-CCL5/ml",not inhibitory
same,Percent Infectivity,RSV A2; [2],31%
same,Percent Infectivity,cp-RSV,64%
